Tests used:
Assay in all cases: relative viability (nuclei count vs DMSO), 5 days (fraction); higher = more cells survive
BMX-IN-1 + Crizotinib = compound: C=CC(=O)Nc1cc(-n2c(=O)ccc3cnc4ccc(-c5ccc(NS(C)(=O)=O)cc5)cc4c32)ccc1C [BMX-IN-1] + C[C@@H](Oc1cc(-c2cnn(C3CCNCC3)c2)cnc1N)c1c(Cl)ccc(F)c1Cl [Crizotinib] (partner 1 µM)
How it was run: (§1)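 Lung cancer cell lines in 1536-well plates were dosed by pin tool the day after seeding, either with one drug alone or with a fixed anchor-drug dose plus five library-drug doses (not always all listed) in √10 steps. After 5 days, cells were fixed and their nuclei stained in one step (final 0.05% Triton X-100, 1% formaldehyde, 1 ug/ml Hoechst), then counted on 4× images. Relative viability is the nuclei count in treated wells divided by that in vehicle wells. Values are medians of duplicate plates.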

PAC-1 + Palbociclib = compound: C=CCc1cccc(/C=N/NC(=O)CN2CCN(Cc3ccccc3)CC2)c1O [PAC-1] + CC(=O)c1c(C)c2cnc(Nc3ccc(N4CCNCC4)cn3)nc2n(C2CCCC2)c1=O [Palbociclib] (partner 0.5 µM)
How it was run: as §1

PAC-1 + Luminespib = compound: C=CCc1cccc(/C=N/NC(=O)CN2CCN(Cc3ccccc3)CC2)c1O [PAC-1] + CCNC(=O)c1noc(-c2cc(C(C)C)c(O)cc2O)c1-c1ccc(CN2CCOCC2)cc1 [Luminespib] (partner 0.01 µM)
How it was run: as §1

PAC-1 + Crizotinib = compound: C=CCc1cccc(/C=N/NC(=O)CN2CCN(Cc3ccccc3)CC2)c1O [PAC-1] + C[C@@H](Oc1cc(-c2cnn(C3CCNCC3)c2)cnc1N)c1c(Cl)ccc(F)c1Cl [Crizotinib] (partner 1 µM)
How it was run: as §1

PAC-1 + Pemetrexed = compound: C=CCc1cccc(/C=N/NC(=O)CN2CCN(Cc3ccccc3)CC2)c1O [PAC-1] + Nc1nc2[nH]cc(CCc3ccc(C(=O)N[C@@H](CCC(=O)O)C(=O)O)cc3)c2c(=O)[nH]1 [Pemetrexed] (partner 0.2 µM)
How it was run: as §1

Cell Line	relative viability (BMX-IN-1 + Crizotinib; first compound 0.02 µM)	relative viability (BMX-IN-1 + Crizotinib; first compound 0.2 µM)	relative viability (BMX-IN-1 + Crizotinib; first compound 0.6325 µM)	relative viability (BMX-IN-1 + Crizotinib; first compound 2 µM)	relative viability (PAC-1 + Palbociclib; first compound 0.02 µM)	relative viability (PAC-1 + Palbociclib; first compound 0.06325 µM)	relative viability (PAC-1 + Palbociclib; first compound 0.2 µM)	relative viability (PAC-1 + Palbociclib; first compound 2 µM)	relative viability (PAC-1 + Luminespib; first compound 0.02 µM)	relative viability (PAC-1 + Luminespib; first compound 0.06325 µM)	relative viability (PAC-1 + Luminespib; first compound 0.2 µM)	relative viability (PAC-1 + Luminespib; first compound 2 µM)	relative viability (PAC-1 + Crizotinib; first compound 0.02 µM)	relative viability (PAC-1 + Crizotinib; first compound 0.06325 µM)	relative viability (PAC-1 + Crizotinib; first compound 0.2 µM)	relative viability (PAC-1 + Crizotinib; first compound 2 µM)	relative viability (PAC-1 + Pemetrexed; first compound 0.02 µM)	relative viability (PAC-1 + Pemetrexed; first compound 0.06325 µM)	relative viability (PAC-1 + Pemetrexed; first compound 0.2 µM)	relative viability (PAC-1 + Pemetrexed; first compound 2 µM)
NCI-H1355	1.27	1.17	1.08	1.13	0.43	0.39	0.412	0.421	0.762	0.668	0.797	0.778	1.08	1.08	1.17	1.03	1.01	1.06	1.01	1.11
LK-2	0.232	0.207	0.252	0.191	0.536	0.809	0.616	0.63	0.176	0.169	0.225	0.254	0.231	0.233	0.234	0.289	0.238	0.244	0.246	0.321
NCI-H1650	1.15	1.11	1.03	0.918	0.334	0.375	0.333	0.274	0.191	0.199	0.209	0.191	0.936	1.09	0.898	1.03	0.365	0.387	0.321	0.387
NCI-H838	1.14	0.983	0.834	0.877	0.239	0.227	0.22	0.229	0.254	0.374	0.238	0.301	0.776	0.758	0.801	0.92	0.22	0.235	0.238	0.206
EMC-BAC-2	0.858	0.877	0.797	0.718	0.55	0.524	0.519	0.519	1.19	1.17	1.18	1.15	0.771	0.709	0.796	0.72	0.49	0.479	0.46	0.464
SW 1573	0.869	0.97	0.879	0.767	0.381	0.292	0.455	0.474	0.214	0.175	0.223	0.371	0.786	0.658	0.701	0.839	0.831	0.778	0.83	0.855
CAL-12T	0.798	0.827	0.618	0.562	0.544	0.52	0.379	0.513	0.268	0.517	0.381	0.247	0.72	0.828	0.551	0.578	1.22	1.23	1.15	1.16
NCI-H2009	1.11	1.07	1.26	1.06	0.203	0.231	0.236	0.239	1.01	1.04	1.03	1.01	1.04	1.05	0.979	0.964	1.03	0.989	1.1	0.989
HARA	1.39	1.24	1.16	1.09	0.228	0.225	0.247	0.329	0.554	0.674	0.793	0.937	0.955	1.03	1.01	1.06	0.23	0.234	0.264	0.239
HCC-827	0.972	0.939	0.939	0.97	0.482	0.461	0.442	0.473	0.634	0.465	0.649	0.609	0.982	0.943	0.875	0.889	0.275	0.259	0.256	0.256
EBC-1	0.195	0.202	0.162	0.197									0.194	0.175	0.201	0.178				
NCI-H647	1.41	1.45	1.1	0.937	0.288	0.37	0.35	0.409	0.103	0.123	0.286	0.16	1.06	1.12	1.03	0.812	0.176	0.207	0.163	0.168
A549	0.986	1.22	0.945	0.738									0.747	0.793	0.706	0.77				
NCI-H661		0.96	1.14	0.976	0.439	0.445	0.399	0.392	0.951	0.882	0.821	0.736	0.927	1.06		1.06	0.906	0.877	0.88	0.882
NCI-H1651	0.976	1.01	0.907	0.862	0.525	0.536	0.547	0.499	0.789	0.859	0.744	0.905	0.815	0.898	0.874	0.755	0.596	0.538	0.525	0.712
HCC-78	0.379	0.347	0.335	0.405	0.477	0.454	0.505	0.465					0.343	0.34	0.362	0.337	0.915	0.904	0.85	0.928
NCI-H2085	0.98	0.815	0.897	0.855	0.487	0.462	0.428	0.504	0.42	0.496	0.43	0.484	0.742	0.899	0.789	0.947	0.945	0.885	0.953	1.03
NCI-H2228	0.52	0.354	0.417	0.495	1.03	0.921	0.804	0.797	0.16	0.146	0.162	0.182	0.467	0.416	0.498	0.398	0.344	0.361	0.325	0.346

Cell Line	relative viability (BMX-IN-1 + Crizotinib; first compound 0.02 µM)	relative viability (BMX-IN-1 + Crizotinib; first compound 0.2 µM)	relative viability (BMX-IN-1 + Crizotinib; first compound 0.6325 µM)	relative viability (BMX-IN-1 + Crizotinib; first compound 2 µM)	relative viability (PAC-1 + Palbociclib; first compound 0.02 µM)	relative viability (PAC-1 + Palbociclib; first compound 0.06325 µM)	relative viability (PAC-1 + Palbociclib; first compound 0.2 µM)	relative viability (PAC-1 + Palbociclib; first compound 2 µM)	relative viability (PAC-1 + Luminespib; first compound 0.02 µM)	relative viability (PAC-1 + Luminespib; first compound 0.06325 µM)	relative viability (PAC-1 + Luminespib; first compound 0.2 µM)	relative viability (PAC-1 + Luminespib; first compound 2 µM)	relative viability (PAC-1 + Crizotinib; first compound 0.02 µM)	relative viability (PAC-1 + Crizotinib; first compound 0.06325 µM)	relative viability (PAC-1 + Crizotinib; first compound 0.2 µM)	relative viability (PAC-1 + Crizotinib; first compound 2 µM)	relative viability (PAC-1 + Pemetrexed; first compound 0.02 µM)	relative viability (PAC-1 + Pemetrexed; first compound 0.06325 µM)	relative viability (PAC-1 + Pemetrexed; first compound 0.2 µM)	relative viability (PAC-1 + Pemetrexed; first compound 2 µM)
LU99A	0.639	0.567	0.547	0.579	0.425	0.422	0.461	0.408	0.304	0.229	0.266	0.217	0.618	0.581	0.515	0.544	0.192	0.162	0.182	0.177
NCI-H522					0.866	0.984	0.962	1.11	1.15	1.06	0.975	1.17					0.945	0.902	1.08	0.955
NCI-H1793					0.307	0.324	0.271	0.302	0.207	0.216	0.164	0.17					0.811	0.952	0.835	0.837
Calu-6	0.925	0.886	0.927	0.988									0.728	0.823	0.8	0.867				
HCC-366	0.582	1.01	0.586	0.703	0.364	0.377	0.365	0.404					0.542	0.479	0.454	0.591	0.176	0.162	0.159	0.164
NCI-H1563	0.794	0.887	0.86	0.761					0.49	0.542	0.505	0.511	0.851	0.801	0.784	0.969	0.787	0.746	0.776	0.949
IA-LM	0.875	0.865	0.99	0.772									0.862	0.865	0.75	0.751				
NCI-H596	1.13	1.18	1.03	0.827					0.913	0.975	0.929	1.08	0.974	0.952	0.98	1.07	0.435	0.471	0.477	0.54
NCI-H1299	0.798	1.03	0.97	1.01									0.936	0.94	0.937	0.891				
NCI-H727	1.15	1.12	1.01	0.846	0.516	0.597	0.681	0.714	0.255	0.371	0.639	0.315	0.847	0.841	0.898	0.821				
NCI-H1648					0.299	0.243	0.26	0.228									0.676	0.838	0.81	0.646
NCI-H1703	0.821	0.952	0.631	0.56									0.588	0.897	0.851	0.622				
NCI-H2342					0.531	0.561	0.54	0.564	0.655	0.82	0.759	0.777					0.851	0.754	0.727	0.781
NCI-H1623									0.465	0.473	0.515	0.499								
SW 900						0.599	0.554	0.474	0.173	0.157	0.16	0.214						0.456	0.456	0.531
ABC-1	1.22	1.27	0.69	0.904	0.63	0.742	0.678	0.638	0.526	0.803	0.682	0.519	1.09	1.16	1.11	1.34				
NCI-H1395					0.624	0.648	0.593	0.572	0.656	0.585	0.651	0.653					0.868	0.799	0.781	0.923

— the supplement of paper PMC10307832
